Test results published in US20260131009A1, “BIFUNCTIONAL PI3K-ALPHA INHIBITORS AND USES THEREOF” (Relay Therapeutics, Inc., priority 2021, published 2026).

Target: PI3Kα (Homo sapiens, UniProt P42336, H1047R)
Assay: ADP-Glo IC50 assay
Assay type: biochemical
Details: class symbols; key not given

PI3Kα, sequence (P42336 whole entry H1047R): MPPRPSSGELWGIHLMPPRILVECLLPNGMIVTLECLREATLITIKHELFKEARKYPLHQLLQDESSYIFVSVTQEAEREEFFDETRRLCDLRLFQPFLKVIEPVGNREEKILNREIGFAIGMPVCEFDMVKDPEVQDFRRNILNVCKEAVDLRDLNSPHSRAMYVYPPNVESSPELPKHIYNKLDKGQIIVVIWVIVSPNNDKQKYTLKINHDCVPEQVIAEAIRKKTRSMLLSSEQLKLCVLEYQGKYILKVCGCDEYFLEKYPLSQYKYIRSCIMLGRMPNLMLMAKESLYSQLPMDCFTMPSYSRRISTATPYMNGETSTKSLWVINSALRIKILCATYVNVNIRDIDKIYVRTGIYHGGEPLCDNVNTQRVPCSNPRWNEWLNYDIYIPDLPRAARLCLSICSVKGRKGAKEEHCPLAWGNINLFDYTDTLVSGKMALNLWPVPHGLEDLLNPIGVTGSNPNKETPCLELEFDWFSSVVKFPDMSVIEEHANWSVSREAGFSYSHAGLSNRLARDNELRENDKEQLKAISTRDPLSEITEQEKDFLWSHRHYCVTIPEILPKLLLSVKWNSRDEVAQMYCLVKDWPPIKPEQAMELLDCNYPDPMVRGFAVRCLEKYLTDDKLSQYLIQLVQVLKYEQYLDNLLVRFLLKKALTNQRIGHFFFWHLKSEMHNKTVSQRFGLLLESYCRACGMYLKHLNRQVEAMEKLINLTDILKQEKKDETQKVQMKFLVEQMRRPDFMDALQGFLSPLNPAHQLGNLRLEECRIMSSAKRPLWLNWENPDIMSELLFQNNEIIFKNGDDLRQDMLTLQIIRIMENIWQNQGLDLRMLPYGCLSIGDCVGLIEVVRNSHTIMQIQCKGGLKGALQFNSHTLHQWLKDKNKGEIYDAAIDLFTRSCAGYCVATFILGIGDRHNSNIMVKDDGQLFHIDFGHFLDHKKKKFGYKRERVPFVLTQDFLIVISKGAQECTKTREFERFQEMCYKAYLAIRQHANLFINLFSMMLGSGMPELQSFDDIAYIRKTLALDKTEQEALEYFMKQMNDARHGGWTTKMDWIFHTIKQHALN
PI3Kα, sequence (P27986 whole entry partner): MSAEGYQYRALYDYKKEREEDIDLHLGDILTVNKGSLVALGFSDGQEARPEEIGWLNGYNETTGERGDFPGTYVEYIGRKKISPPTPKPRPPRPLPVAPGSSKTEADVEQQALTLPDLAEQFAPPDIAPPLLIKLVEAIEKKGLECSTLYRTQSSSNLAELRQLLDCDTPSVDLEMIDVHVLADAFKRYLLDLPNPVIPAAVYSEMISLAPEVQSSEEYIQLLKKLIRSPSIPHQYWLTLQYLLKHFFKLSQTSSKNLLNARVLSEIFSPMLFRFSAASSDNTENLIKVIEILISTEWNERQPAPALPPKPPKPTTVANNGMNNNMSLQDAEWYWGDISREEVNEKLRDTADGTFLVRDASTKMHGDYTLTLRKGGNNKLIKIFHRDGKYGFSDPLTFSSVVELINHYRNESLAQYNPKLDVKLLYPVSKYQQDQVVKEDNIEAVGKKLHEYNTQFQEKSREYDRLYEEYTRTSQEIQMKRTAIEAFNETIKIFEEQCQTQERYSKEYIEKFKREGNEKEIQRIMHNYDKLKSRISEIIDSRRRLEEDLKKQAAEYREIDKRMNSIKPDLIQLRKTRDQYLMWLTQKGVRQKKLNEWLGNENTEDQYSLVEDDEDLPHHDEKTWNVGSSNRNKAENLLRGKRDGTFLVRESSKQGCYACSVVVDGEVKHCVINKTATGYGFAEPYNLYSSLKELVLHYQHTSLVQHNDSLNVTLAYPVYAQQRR

Structure (SMILES): Cc1ncsc1-c1ccc([C@H](C)NC(=O)[C@@H]2C[C@@H](O)CN2C(=O)[C@@H](NC(=O)CCCCCCCCCNC(=O)c2cc(NC(=O)c3cc(F)cc(C(F)(F)F)c3)c3c(c2)C(=O)N[C@@H]3c2cc(F)ccc2Cl)C(C)(C)C)cc1 [Example I-81]
- IC50: 100 to 500 nM

Structure (SMILES): NC(=O)CCCCCCCCCNC(=O)c1cc(NC(=O)c2cc(F)cc(C(F)(F)F)c2)c2c(c1)C(=O)N[C@@H]2c1cc(F)ccc1Cl [Example I-83]
- IC50: < 100 nM

Structure (SMILES): O=C1CCC(N2Cc3cc(C#CCN4CCC(NC(=O)c5cnc(Nc6cc(F)ccc6Cl)c(NC(=O)c6csc7ccccc67)c5)CC4)ccc3C2=O)C(=O)N1 (stereo not drawn) [Example I-84]
- IC50: 1000 to 10000 nM

Structure (SMILES): O=C1CCC(N2C(=O)c3ccc(NCCCCCNC(=O)c4cc(NC(=O)c5cc(F)cc(C(F)(F)F)c5)c5c(c4)C(=O)N[C@H]5c4cc(F)ccc4Cl)cc3C2=O)C(=O)N1 (stereo partly drawn) [Example I-85]
- IC50: < 100 nM

Structure (SMILES): O=C(O)CCCCCCCCCNC(=O)c1cc(NC(=O)c2cc(F)cc(C(F)(F)F)c2)c2c(c1)C(=O)N[C@H]2c1cc(F)ccc1Cl [Example I-86]
- IC50: 1000 to 10000 nM

Structure (SMILES): Cc1ncsc1-c1ccc([C@H](C)NC(=O)[C@@H]2C[C@@H](O)CN2C(=O)[C@@H](NC(=O)CCCCCCCCCNC(=O)c2cc(NC(=O)c3cc(F)cc(C(F)(F)F)c3)c3c(c2)C(=O)N[C@H]3c2cc(F)ccc2Cl)C(C)(C)C)cc1 [Example I-88]
- IC50: 500 to 1000 nM

Structure (SMILES): O=C1CCC(N2C(=O)c3ccc(NCCCCCCCNC(=O)c4cc(NC(=O)c5cc(F)cc(C(F)(F)F)c5)c5c(c4)C(=O)N[C@@H]5c4cc(F)ccc4Cl)cc3C2=O)C(=O)N1 (stereo partly drawn) [Example I-89]
- IC50: 500 to 1000 nM

Structure (SMILES): O=C1CCC(N2C(=O)c3ccc(NCCCCCCCNC(=O)c4cc(NC(=O)c5cc(F)cc(C(F)(F)F)c5)c5c(c4)C(=O)N[C@H]5c4cc(F)ccc4Cl)cc3C2=O)C(=O)N1 (stereo partly drawn) [Example I-90]
- IC50: < 100 nM

Structure (SMILES): Cc1cc(Br)c2oc(N3CCN(C(=O)CCOCCOCCNC(=O)c4cnc(Nc5ccccc5C)c(NC(=O)c5csc6ccccc56)c4)CC3)cc(=O)c2c1 [Example I-91]
- IC50: 1000 to 10000 nM

Structure (SMILES): O=C(CCCCCCCNC(=O)c1cc(NC(=O)c2cc(F)cc(C(F)(F)F)c2)c2c(c1)C(=O)N[C@@H]2c1cc(F)ccc1Cl)NCc1ccc2c(c1)CN(C1CCC(=O)NC1=O)C2=O (stereo partly drawn) [Example I-92]
- IC50: 500 to 1000 nM

Structure (SMILES): O=C(CCCCCCCNC(=O)c1cc(NC(=O)c2cc(F)cc(C(F)(F)F)c2)c2c(c1)C(=O)N[C@H]2c1cc(F)ccc1Cl)NCc1ccc2c(c1)CN(C1CCC(=O)NC1=O)C2=O (stereo partly drawn) [Example I-93]
- IC50: < 100 nM

Structure (SMILES): O=C1CCC(N2C(=O)c3ccc(NCCCCNC(=O)c4cc(NC(=O)c5cc(F)cc(C(F)(F)F)c5)c5c(c4)C(=O)N[C@@H]5c4cc(F)ccc4Cl)cc3C2=O)C(=O)N1 (stereo partly drawn) [Example I-94]
- IC50: 500 to 1000 nM

Structure (SMILES): O=C1CCC(N2Cc3cc(C#CCNC(=O)c4cnc(Nc5cc(F)ccc5Cl)c(NC(=O)c5csc6ccccc56)c4)ccc3C2=O)C(=O)N1 (stereo not drawn) [Example I-95]
- IC50: < 100 nM

Structure (SMILES): O=C1CCC(N2C(=O)c3ccc(NCCCNC(=O)c4cc(NC(=O)c5cc(F)cc(C(F)(F)F)c5)c5c(c4)C(=O)N[C@@H]5c4cc(F)ccc4Cl)cc3C2=O)C(=O)N1 (stereo partly drawn) [Example I-96]
- IC50: 100 to 500 nM

Structure (SMILES): O=C1CCC(N2C(=O)c3ccc(NCCCCNC(=O)c4cnc(Nc5cc(F)ccc5Cl)c(NC(=O)c5csc6ccccc56)c4)cc3C2=O)C(=O)N1 (stereo not drawn) [Example I-97]
- IC50: 100 to 500 nM

Structure (SMILES): O=C1CCC(N2C(=O)c3ccc(NCCCNC(=O)c4cc(NC(=O)c5cc(F)cc(C(F)(F)F)c5)c5c(c4)C(=O)N[C@H]5c4cc(F)ccc4Cl)cc3C2=O)C(=O)N1 (stereo partly drawn) [Example I-98]
- IC50: < 100 nM

Structure (SMILES): O=C1CCC(N2C(=O)c3ccc(NCCCNC(=O)c4cnc(Nc5cc(F)ccc5Cl)c(NC(=O)c5csc6ccccc56)c4)cc3C2=O)C(=O)N1 (stereo not drawn) [Example I-99]
- IC50: 100 to 500 nM

Structure (SMILES): O=C1CCC(N2C(=O)c3ccc(NCCCCNC(=O)c4cc(NC(=O)c5cc(F)cc(C(F)(F)F)c5)c5c(c4)C(=O)N[C@H]5c4cc(F)ccc4Cl)cc3C2=O)C(=O)N1 (stereo partly drawn) [Example I-100]
- IC50: < 100 nM

Structure (SMILES): Cc1cc(Br)c2oc(N3CCN(C(=O)CCCCCNC(=O)c4cnc(Nc5ccccc5C)c(NC(=O)c5csc6ccccc56)c4)CC3)cc(=O)c2c1 [Example I-101]
- IC50: 100 to 500 nM

Structure (SMILES): O=C1CCC(N2Cc3cc(C#CCNC(=O)c4cc(NC(=O)c5cc(F)cc(C(F)(F)F)c5)c5c(c4)C(=O)N[C@@H]5c4cc(F)ccc4Cl)ccc3C2=O)C(=O)N1 (stereo partly drawn) [Example I-102]
- IC50: < 100 nM

Structure (SMILES): NC(=O)CCCCCCCCCNC(=O)c1cc(NC(=O)c2nsc3ccccc23)c2n1CC(=O)N[C@@H]2c1cc(F)ccc1Cl [Example I-103]
- IC50: < 100 nM

Structure (SMILES): NC(=O)CCCCCCCCCNC(=O)c1cc(NC(=O)c2nsc3ccccc23)c2n1CC(=O)N[C@H]2c1cc(F)ccc1Cl [Example I-104]
- IC50: < 100 nM

Structure (SMILES): Cc1ncsc1-c1ccc(CNC(=O)[C@@H]2C[C@@H](O)CN2C(=O)[C@@H](NC(=O)CCCCCCCCCNC(=O)c2cc(NC(=O)c3nsc4ccccc34)c3n2CC(=O)N[C@H]3c2cc(F)ccc2Cl)C(C)(C)C)cc1 [Example I-105]
- IC50: 500 to 1000 nM

Structure (SMILES): O=C1CCC(N2Cc3cc(C(=O)NCCCCCCCCCNC(=O)c4cc(NC(=O)c5nsc6ccccc56)c5n4CC(=O)N[C@@H]5c4cc(F)ccc4Cl)ccc3C2=O)C(=O)N1 (stereo partly drawn) [Example I-106]
- IC50: < 100 nM

Structure (SMILES): Cc1ncsc1-c1ccc(CNC(=O)[C@@H]2C[C@@H](O)CN2C(=O)[C@@H](NC(=O)CCCCCCCCCNC(=O)c2cc(NC(=O)c3nsc4ccccc34)c3n2CC(=O)N[C@@H]3c2cc(F)ccc2Cl)C(C)(C)C)cc1 [Example I-107]
- IC50: < 100 nM

Structure (SMILES): Cc1cc(Br)c2oc(N3CCN(C(=O)CCCCCCNC(=O)c4cnc(Nc5ccccc5C)c(NC(=O)c5csc6ccccc56)c4)CC3)cc(=O)c2c1 [Example I-108]
- IC50: 100 to 500 nM

Structure (SMILES): Cc1ccccc1Nc1ncc(C(=O)N[C@H](CCC(=O)N[C@H](C(=O)N2C[C@H](O)C[C@H]2C(=O)NCc2ccc(-c3scnc3C)cc2)C(C)(C)C)C(O)O)cc1NC(=O)c1csc2ccccc12 [Example I-109]
- IC50: 1000 to 10000 nM

Structure (SMILES): O=C1CCC(N2Cc3cc(C#CCNC(=O)c4cc(NC(=O)c5cc(F)cc(C(F)(F)F)c5)c5c(c4)C(=O)N[C@H]5c4cc(F)ccc4Cl)ccc3C2=O)C(=O)N1 (stereo partly drawn) [Example I-110]
- IC50: < 100 nM

Structure (SMILES): Cc1cc([C@@H](C)Nc2ccccc2)c2oc(N3CCN(C(=O)CCOCCOCCNC(=O)c4cnc(Nc5ccccc5C)c(NC(=O)c5csc6ccccc56)c4)CC3)cc(=O)c2c1 [Example I-111]
- IC50: < 100 nM

Structure (SMILES): Cc1cc([C@H](C)Nc2ccccc2)c2oc(N3CCN(C(=O)CCOCCOCCNC(=O)c4cnc(Nc5ccccc5C)c(NC(=O)c5csc6ccccc56)c4)CC3)cc(=O)c2c1 [Example I-112]
- IC50: 1000 to 10000 nM

Structure (SMILES): Cc1ncsc1-c1ccc([C@H](C)NC(=O)[C@@H]2C[C@@H](O)CN2C(=O)[C@@H](NC(=O)CCCCCCCCCNC(=O)c2cc(NC(=O)c3nsc4ccccc34)c3n2CC(=O)N[C@H]3c2cc(F)ccc2Cl)C(C)(C)C)cc1 [Example I-113]
- IC50: 100 to 500 nM

Structure (SMILES): Cc1cc([C@@H](C)Nc2ccccc2C(=O)O)c2oc(N3CCN(C(=O)CCOCCOCCNC(=O)c4cnc(Nc5ccccc5C)c(NC(=O)c5csc6ccccc56)c4)CC3)cc(=O)c2c1 [Example I-125]
- IC50: < 100 nM

Structure (SMILES): Cc1cc([C@H](C)Nc2ccccc2C(=O)O)c2oc(N3CCN(C(=O)CCOCCOCCNC(=O)c4cnc(Nc5ccccc5C)c(NC(=O)c5csc6ccccc56)c4)CC3)cc(=O)c2c1 [Example I-126]
- IC50: 100 to 500 nM

Structure (SMILES): Cc1cc([C@H](C)Nc2ccccc2C(=O)O)c2oc(N3CCN(C(=O)CCC(=O)NCc4ccc5c(c4)C(=O)N(C4CCC(=O)NC4=O)C5)CC3)cc(=O)c2c1 (stereo partly drawn) [Example I-127]
- IC50: 1000 to 10000 nM

Structure (SMILES): Cc1cc([C@H](C)Nc2ccccc2C(=O)O)c2oc(N3CCN(C(=O)CCCCCNc4ccc5c(c4)C(=O)N(C4CCC(=O)NC4=O)C5=O)CC3)cc(=O)c2c1 (stereo partly drawn) [Example I-128]
- IC50: 1000 to 10000 nM

Structure (SMILES): Cc1cc([C@H](C)Nc2ccccc2C(=O)O)c2oc(N3CCN(C(=O)CCCCCCNc4ccc5c(c4)C(=O)N(C4CCC(=O)NC4=O)C5=O)CC3)cc(=O)c2c1 (stereo partly drawn) [Example I-129]
- IC50: 1000 to 10000 nM

Structure (SMILES): Cc1cc([C@H](C)Nc2ccccc2C(=O)O)c2oc(N3CCN(C(=O)CCNc4ccc5c(c4)C(=O)N(C4CCC(=O)NC4=O)C5=O)CC3)cc(=O)c2c1 (stereo partly drawn) [Example I-130]
- IC50: 1000 to 10000 nM

Structure (SMILES): Cc1cc([C@@H](C)Nc2ccccc2C(=O)O)c2oc(N3CCN(C(=O)CCCCCNc4ccc5c(c4)C(=O)N(C4CCC(=O)NC4=O)C5=O)CC3)cc(=O)c2c1 (stereo partly drawn) [Example I-132]
- IC50: 500 to 1000 nM

Structure (SMILES): Cc1cc([C@H](C)Nc2ccccc2C(=O)O)c2oc(N3CCN(C(=O)CCCNc4cccc5c4C(=O)N(C4CCC(=O)NC4=O)C5=O)CC3)cc(=O)c2c1 (stereo partly drawn) [Example I-133]
- IC50: 1000 to 10000 nM

Structure (SMILES): Cc1cc([C@H](C)Nc2ccccc2C(=O)O)c2oc(N3CCN(C(=O)CCNc4cccc5c4C(=O)N(C4CCC(=O)NC4=O)C5=O)CC3)cc(=O)c2c1 (stereo partly drawn) [Example I-134]
- IC50: 1000 to 10000 nM

Structure (SMILES): Cc1cc([C@@H](C)Nc2ccccc2C(=O)O)c2oc(N3CCN(C(=O)CCNc4cccc5c4C(=O)N(C4CCC(=O)NC4=O)C5=O)CC3)cc(=O)c2c1 (stereo partly drawn) [Example I-135]
- IC50: 500 to 1000 nM

Structure (SMILES): Cc1cc([C@H](C)Nc2ccccc2C(=O)O)c2oc(N3CCN(C(=O)CCCCCCCNc4cccc5c4C(=O)N(C4CCC(=O)NC4=O)C5=O)CC3)cc(=O)c2c1 (stereo partly drawn) [Example I-136]
- IC50: 1000 to 10000 nM

Structure (SMILES): Cc1cc([C@H](C)Nc2ccccc2C(=O)O)c2oc(N3CCN(C(=O)CCCCCNc4cccc5c4C(=O)N(C4CCC(=O)NC4=O)C5=O)CC3)cc(=O)c2c1 (stereo partly drawn) [Example I-137]
- IC50: 1000 to 10000 nM

Structure (SMILES): Cc1cc([C@H](C)Nc2ccccc2C(=O)O)c2oc(N3CCN(C(=O)CCOCCNc4ccc5c(c4)C(=O)N(C4CCC(=O)NC4=O)C5=O)CC3)cc(=O)c2c1 (stereo partly drawn) [Example I-138]
- IC50: 1000 to 10000 nM

Structure (SMILES): Cc1cc([C@@H](C)Nc2ccccc2C(=O)O)c2oc(N3CCN(C(=O)CCNc4ccc5c(c4)C(=O)N(C4CCC(=O)NC4=O)C5=O)CC3)cc(=O)c2c1 (stereo partly drawn) [Example I-140]
- IC50: 500 to 1000 nM

Structure (SMILES): Cc1cc([C@@H](C)Nc2ccccc2C(=O)O)c2oc(N3CCN(C(=O)CCCNc4cccc5c4C(=O)N(C4CCC(=O)NC4=O)C5=O)CC3)cc(=O)c2c1 (stereo partly drawn) [Example I-141]
- IC50: 500 to 1000 nM

Structure (SMILES): Cc1cc([C@@H](C)Nc2ccccc2C(=O)O)c2oc(N3CCN(C(=O)CCCCCNc4cccc5c4C(=O)N(C4CCC(=O)NC4=O)C5=O)CC3)cc(=O)c2c1 (stereo partly drawn) [Example I-142]
- IC50: 500 to 1000 nM

Structure (SMILES): Cc1cc([C@@H](C)Nc2ccccc2C(=O)O)c2oc(N3CCN(C(=O)CCCCCCCNc4cccc5c4C(=O)N(C4CCC(=O)NC4=O)C5=O)CC3)cc(=O)c2c1 (stereo partly drawn) [Example I-143]
- IC50: 1000 to 10000 nM
